Source: PubChem BioAssay (NCI)
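Where inhibition never reached the appropriate level, the endpoint shown equals the highest concentration tested. Otherwise, values were interpolated linearly from a five-concentration, 48-hour dose response in 96-well plates. GI50 marks 50% less growth. TGI marks complete inhibition of growth.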

How the values were obtained:
Assay in all cases: growth of human tumour cells (NCI), 48 h
[1] = system: A498 renal
[2] = system: ACHN renal
[3] = system: COLO 205 colon
[4] = system: HCC-2998 colon
[5] = system: NCI-H23 lung
[6] = system: NCI-H522 lung
[7] = system: OVCAR-5 ovarian
[8] = system: SK-MEL-2 melanoma
[9] = system: SK-MEL-28 melanoma
[10] = system: SK-OV-3 ovarian
[11] = system: HOP-92 NSCLC

`OCCNCCN1CCN(CCCN2c3ccccc3Sc3ccc(C(F)(F)F)cc32)CC1` was tested, and the TGI [1] was > 100 µM, the TGI [2] was 43.2 µM and the TGI [3] was 32.4 µM. The TGI [4] was 44.7 µM, the TGI [5] was 51 µM and the TGI [6] was 36.6 µM. For the same molecule, the TGI [7] was 43.5 µM, the TGI [8] was 37.5 µM and the TGI [9] was 39.5 µM. For the same molecule, the TGI [10] was 77.9 µM.

`Cc1ccc(C2OC(COCc3ccc(Cl)cc3)C(OCc3ccc(Cl)cc3)C2O)cc1` (configuration not stated) was tested, and the TGI [2] was 41.8 µM, the TGI [3] was > 100 µM and the TGI [4] was 72.7 µM. The TGI [11] was 15.6 µM, the TGI [5] was 40.3 µM and the TGI [7] was > 100 µM. For the same molecule, the TGI [8] was 31 µM, the TGI [9] was > 100 µM and the TGI [10] was 15.3 µM.

In the case of `CCCc1c(-c2ccccc2)[nH]c2ccccc2c1=O`, the TGI [1] is reported as 79 µM, the TGI [2] is reported as > 100 µM and the TGI [3] is reported as > 100 µM. The TGI [4] was 65.4 µM, the TGI [11] was > 100 µM and the TGI [5] was > 100 µM. For the same molecule, the TGI [7] was > 100 µM, the TGI [8] was 96.7 µM and the TGI [9] was > 100 µM. The TGI [10] was > 100 µM.

With `CO/N=C(/C)c1ccc(NC(=O)CSc2nnc(-c3ccncc3)n2-c2ccccc2)cc1` the GI50 [1] was 2.15 µM, the TGI [1] was 8.08 µM and the GI50 [3] was > 100 µM. For the same molecule, the TGI [3] was > 100 µM, the GI50 [4] was > 100 µM and the TGI [4] was > 100 µM. It also gave a GI50 [11] of 2.32 µM, a TGI [11] of 6.07 µM and a GI50 [5] of 4.24 µM. The TGI [5] was > 100 µM, the GI50 [7] was > 100 µM and the TGI [7] was > 100 µM. For the same molecule, the GI50 [8] was 11.1 µM, the TGI [8] was 55.1 µM and the GI50 [9] was > 100 µM. The TGI [9] was > 100 µM, the GI50 [10] was 3.34 µM and the TGI [10] was > 100 µM.

In the case of `NCCSS(=O)(=O)CCN`, the TGI [1] is reported as > 100 µM, the TGI [2] is reported as > 100 µM and the TGI [3] is reported as > 100 µM. The TGI [4] was > 100 µM, the TGI [11] was > 100 µM and the TGI [5] was > 100 µM. The TGI [6] was > 100 µM, the TGI [7] was > 100 µM and the TGI [8] was > 100 µM. The TGI [9] was > 100 µM and the TGI [10] was > 100 µM.

For `CN(C)CCCN1c2ccccc2Sc2ccc3ccccc3c21`, the TGI [1] was 14 µM, the TGI [2] was 20.9 µM and the TGI [3] was 10 µM. It also gave a TGI [4] of 3.04 µM, a TGI [11] of 21 µM and a TGI [5] of 28.2 µM. The TGI [6] was 22.8 µM, the TGI [7] was 24.7 µM and the TGI [8] was 13.1 µM. It also gave a TGI [9] of 4.26 µM and a TGI [10] of 27.5 µM.

With `C=CC1(NC(=O)c2ccccc2)CCC(C(C)(C)C)CC1` (configuration not stated) the TGI [1] was > 100 µM, the TGI [3] was 43.2 µM and the TGI [4] was > 100 µM. For the same molecule, the TGI [5] was > 85 µM, the TGI [6] was 94 µM and the TGI [7] was > 100 µM. For the same molecule, the TGI [8] was 56.6 µM, the TGI [9] was > 100 µM and the TGI [10] was > 100 µM.

With `O=C1C(Cl)=C(Nc2ccc(S(=O)(=O)O)cc2)C(=O)c2ccccc21` the TGI [2] was 45.8 µM, the TGI [3] was 75.6 µM and the TGI [4] was > 100 µM. For the same molecule, the TGI [11] was 34.6 µM, the TGI [5] was > 100 µM and the TGI [6] was 33.5 µM. The TGI [7] was > 100 µM, the TGI [8] was 59.6 µM and the TGI [9] was 83.2 µM.

With `O=C(O)c1cc2c(ncc3c(=O)n(-c4ccccc4)[nH]c32)s1` the TGI [2] was > 100 µM, the TGI [3] was > 100 µM and the TGI [4] was > 100 µM. For the same molecule, the TGI [11] was > 100 µM, the TGI [5] was > 100 µM and the TGI [6] was > 100 µM. The TGI [7] was > 100 µM, the TGI [8] was > 100 µM and the TGI [9] was > 100 µM. For the same molecule, the TGI [10] was > 100 µM.

With `Cn1c(=O)c2[nH]c(CCNC(=O)c3ccccc3)nc2n(C)c1=O` the TGI [1] was > 100 µM, the TGI [2] was > 100 µM and the TGI [4] was > 100 µM. For the same molecule, the TGI [11] was > 100 µM, the TGI [5] was > 100 µM and the TGI [6] was > 100 µM. For the same molecule, the TGI [7] was > 100 µM, the TGI [8] was > 100 µM and the TGI [9] was > 100 µM.

`O=C1C=CC2(C=C1)O[C@H](Cc1ccccc1)[C@@H](Cc1ccccc1)O2` gave a TGI [1] of 16.6 µM, a TGI [2] of 0.958 µM and a TGI [3] of 2.99 µM. The TGI [4] was 11.1 µM, the TGI [11] was 2.71 µM and the TGI [5] was 3.48 µM. For the same molecule, the TGI [6] was 0.42 µM, the TGI [7] was 1.34 µM and the TGI [8] was 3.33 µM. For the same molecule, the TGI [9] was 1.71 µM and the TGI [10] was 13.7 µM.

`CC(=O)Oc1cc2c(cc1OC(C)=O)OCC(c1ccccc1)C2` (configuration not stated) was tested, and the TGI [1] was 12.2 µM, the TGI [3] was 47 µM and the TGI [4] was 65.5 µM. It also gave a TGI [11] of 25.3 µM, a TGI [5] of 77.6 µM and a TGI [6] of 7.47 µM. The TGI [7] was 61.7 µM, the TGI [8] was 54.7 µM and the TGI [9] was 53.1 µM. It also gave a TGI [10] of 72.3 µM.

In the case of `O=C1OC2(CC1C1(O)C3CC4CC(C3)CC1C4)C1CC3CC(C1)CC2C3` (configuration not stated), the TGI [1] is reported as 84.5 µM, the TGI [2] is reported as > 100 µM and the TGI [5] is reported as > 100 µM. The TGI [8] was > 100 µM and the TGI [9] was > 100 µM.

For `N#C[C@H](OC1OC(COC2OC(CO)C(O)C(O)C2O)C(O)C(O)C1O)c1ccccc1` (some centres not stated), the TGI [1] was > 11.6 µM, the TGI [3] was > 250 µM and the TGI [4] was > 250 µM. The GI50 [11] was > 250 µM, the TGI [11] was > 250 µM and the TGI [5] was > 250 µM. For the same molecule, the TGI [6] was > 250 µM, the TGI [7] was > 250 µM and the TGI [8] was > 250 µM. For the same molecule, the TGI [9] was > 250 µM and the TGI [10] was > 250 µM.

Work on `COc1nc(=O)n(COC(CO)CN2C(=O)c3ccccc3C2=O)cc1Cc1cccc(OCc2ccccc2)c1` (configuration not stated) yielded a TGI [2] of 59.8 µM, a TGI [3] of 37.4 µM and a TGI [4] of 43 µM. For the same molecule, the TGI [11] was 45.2 µM, the TGI [5] was > 100 µM and the TGI [8] was 31.3 µM. It also gave a TGI [9] of 36.2 µM and a TGI [10] of 90.6 µM.

With `O=C(Nc1nc2ccc([N+](=O)[O-])cc2s1)C(=O)C(C(=O)c1ccccc1F)C1OC(=O)c2ccccc21` (configuration not stated) the TGI [1] was > 100 µM, the TGI [2] was > 100 µM and the TGI [3] was 62.4 µM. The TGI [4] was 84.2 µM, the TGI [11] was > 100 µM and the TGI [5] was > 100 µM. The TGI [6] was 51.8 µM, the TGI [7] was > 100 µM and the TGI [8] was > 100 µM. For the same molecule, the TGI [9] was > 100 µM and the TGI [10] was 93.7 µM.

Work on `O=C(CCl)NNC1=Nc2ccc(Cl)cc2SC1` yielded a TGI [1] of 35.1 µM, a TGI [3] of 3.47 µM and a TGI [4] of 9.97 µM. For the same molecule, the TGI [11] was 3.02 µM, the TGI [5] was 6.27 µM and the TGI [6] was 1.85 µM. For the same molecule, the TGI [7] was 4.16 µM, the TGI [8] was 14 µM and the TGI [9] was 3.92 µM. For the same molecule, the TGI [10] was 16.7 µM.

For `Nc1ccn(C2C=C(CO)C(O)C2O)c(=O)c1` (configuration not stated), the TGI [3] was > 625 µM, the TGI [4] was > 625 µM and the TGI [11] was > 625 µM. For the same molecule, the TGI [8] was > 625 µM and the TGI [10] was > 625 µM.
